Target: T1, βARR1 coupling to pβ2V2R (Rattus norvegicus, UniProt P29066)
T1 construct: βARR1 or βARR2 construct, with their C terminus truncated (at amino acid 393 or 394, respectively); GST (pGEX4T1) (N, cleaved yes); made in house; host or cells: βARR1: E. coli BL21 (DE3) pLysS; receptor: Sf9 membranes, co-expressed with GRK2–CAAX
Test: [3H]-Fen high-affinity agonist binding promoted by βARR1 at pβ2V2R
Assay type: biochemical
Conditions: βARR1 2 μM, [3H]-Fen 6 nM, read-out: inhibition of βARR1-mediated stabilization of the high-affinity β2V2R state
Method: The N-terminal Flag-tagged T4 lysozyme fusion-β2V2R construct (β2AR residues 1–341 fused to V2R residues 328–372), bearing a TEV cleavage site, was co-expressed with GRK2–CAAX (membrane-anchored GRK2) or wild-type β2AR in Sf9 insect cells using the Baculovirus Expression System, as described previously[44],[62],[63],[68],[69]. At 66 h after infection, cells expressing T4L–β2V2R were stimulated with 20 μM isoproterenol for 20 min at 37 °C to induce receptor phosphorylation (pβ2V2R), while β2AR-expressing cells remained untreated. All cells were washed extensively to remove residual agonist. For membrane preparation from these cells, briefly, cells were resuspended in cold homogenization buffer (75 mM Tris-HCl, pH 7.4, 2 mM EDTA, and cOmplete protease inhibitor) and collected by centrifugation at 500g for 5 min at 4 °C. […]
To assess the effects of β-arrestin modulators on β-arrestin- or Gαs–βγ-promoted high-affinity agonist binding, [^3H]-Fen binding assays were performed using membranes from Sf9 cells expressing phosphorylated β2V2R (pβ2V2R) or β2AR[28]. […] Bound [^3H]-Fen was extracted overnight in scintillation fluid and quantified by scintillation counting. Specific binding was calculated by subtracting nonspecific from total binding.

T1 sequence (P29066 1-393): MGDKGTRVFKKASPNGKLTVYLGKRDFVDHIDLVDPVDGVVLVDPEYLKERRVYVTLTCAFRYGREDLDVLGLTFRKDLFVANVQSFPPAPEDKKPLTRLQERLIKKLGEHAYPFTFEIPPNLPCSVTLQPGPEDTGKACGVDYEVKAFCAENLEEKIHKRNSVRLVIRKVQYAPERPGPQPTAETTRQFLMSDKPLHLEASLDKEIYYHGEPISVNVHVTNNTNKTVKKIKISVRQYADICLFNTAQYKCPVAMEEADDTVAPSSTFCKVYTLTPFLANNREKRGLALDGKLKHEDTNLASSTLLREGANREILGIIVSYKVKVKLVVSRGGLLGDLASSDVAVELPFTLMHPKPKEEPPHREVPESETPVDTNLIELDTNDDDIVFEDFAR

## C=C1C(=O)[C@]23[C@H](O)[C@H]1CC[C@H]2[C@@]12CO[C@]3(O)[C@@H](O)[C@@H]1C(C)(C)CC[C@@H]2O [Cmpd-5, (1S,4aR,5S,6S,6aR,9S,11aS,11bS,14R)-1,5,6,14-tetrahydroxy−4,4-dimethyl-8-methylenedecahydro-1H-6,11b-(epoxymethano)-6a,9-methanocyclohepta[a]naphthalen-7(8H)-one]
  inhibition at 100 µM: ~40%
